For 18 molecules, IC50 results are on record in patent publication US9745320B2, “Five-and-six-membered heterocyclic compound, and preparation method, pharmaceutical composition and use thereof” (SHANGHAI CHEMEXPLORER CO., LTD., priority 2013, dated 2017).

The term IC50 denotes the point on the concentration scale where inhibition reaches its midpoint.

Common to all, as to assay type: biochemical
For one assay, the target named is JAK1 (Homo sapiens, UniProt P23458). As to the kind of experiment: JAK 1 enzymatic inhibitory activity IC50 assay (Caliper conversion rate). As to conditions: Km ATP, 28° C., 1 hour. The gist of the method:
(§1)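 Human JAK1 or JAK2 enzyme was preincubated with graded compound (2% DMSO) in HEPES pH 7.5/Brij-35/DTT buffer (JAK1 also with Triton), then peptide substrate, 10 mM MgCl2 and ATP at Km were added. Reactions ran 1 hour at 28° C; Caliper conversion rate gave inhibition, averaged over two tests, for IC50.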

The target in a further assay is JAK2 (Homo sapiens, UniProt O60674). As to the kind of experiment: JAK 2 enzymatic inhibitory activity IC50 assay (Caliper conversion rate). As to conditions: Km ATP, 28° C., 1 hour. The gist of the method:
as §1

A further assay concerns the target T1, JAK3 (Homo sapiens, UniProt P52333).
T1 sequence (P52333 1-1124): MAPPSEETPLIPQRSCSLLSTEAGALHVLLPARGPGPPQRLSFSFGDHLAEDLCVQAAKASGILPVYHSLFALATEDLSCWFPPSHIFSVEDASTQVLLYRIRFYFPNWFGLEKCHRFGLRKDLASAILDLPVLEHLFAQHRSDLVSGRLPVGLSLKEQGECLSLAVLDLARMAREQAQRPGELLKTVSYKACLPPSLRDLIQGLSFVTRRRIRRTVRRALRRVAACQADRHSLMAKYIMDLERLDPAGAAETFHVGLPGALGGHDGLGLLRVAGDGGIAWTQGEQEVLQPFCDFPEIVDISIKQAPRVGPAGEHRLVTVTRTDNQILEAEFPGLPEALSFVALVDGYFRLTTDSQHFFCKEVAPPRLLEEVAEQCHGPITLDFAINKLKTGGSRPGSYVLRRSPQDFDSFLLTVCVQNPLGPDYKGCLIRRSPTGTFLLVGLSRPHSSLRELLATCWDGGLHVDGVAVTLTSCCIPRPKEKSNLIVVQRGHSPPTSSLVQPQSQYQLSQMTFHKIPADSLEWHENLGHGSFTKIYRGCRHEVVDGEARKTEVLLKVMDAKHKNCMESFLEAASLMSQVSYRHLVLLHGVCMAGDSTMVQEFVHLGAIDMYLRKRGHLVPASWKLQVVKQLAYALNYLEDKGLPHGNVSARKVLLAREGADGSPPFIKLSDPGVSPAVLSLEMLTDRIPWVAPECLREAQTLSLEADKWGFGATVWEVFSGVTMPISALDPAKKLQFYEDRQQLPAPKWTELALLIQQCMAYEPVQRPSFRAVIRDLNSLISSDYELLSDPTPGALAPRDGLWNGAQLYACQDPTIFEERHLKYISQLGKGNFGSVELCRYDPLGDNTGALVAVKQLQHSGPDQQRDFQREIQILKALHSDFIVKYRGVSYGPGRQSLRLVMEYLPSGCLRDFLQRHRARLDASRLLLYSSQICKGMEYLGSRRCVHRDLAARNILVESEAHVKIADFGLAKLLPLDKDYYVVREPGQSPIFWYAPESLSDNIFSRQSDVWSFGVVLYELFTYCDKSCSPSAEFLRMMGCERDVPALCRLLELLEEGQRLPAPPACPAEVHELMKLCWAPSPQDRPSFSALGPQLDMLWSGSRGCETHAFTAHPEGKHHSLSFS
In words: JAK 3 enzymatic inhibitory activity IC50 assay (Caliper conversion rate). Conditions: Km ATP, 28° C., 1 hour; read-out: JAK 3 enzymatic inhibitory activity IC50.

Each structure is given as a SMILES string. Bounds are passed on as bounds.

Sequence of JAK2 (O60674 whole entry, species assumed): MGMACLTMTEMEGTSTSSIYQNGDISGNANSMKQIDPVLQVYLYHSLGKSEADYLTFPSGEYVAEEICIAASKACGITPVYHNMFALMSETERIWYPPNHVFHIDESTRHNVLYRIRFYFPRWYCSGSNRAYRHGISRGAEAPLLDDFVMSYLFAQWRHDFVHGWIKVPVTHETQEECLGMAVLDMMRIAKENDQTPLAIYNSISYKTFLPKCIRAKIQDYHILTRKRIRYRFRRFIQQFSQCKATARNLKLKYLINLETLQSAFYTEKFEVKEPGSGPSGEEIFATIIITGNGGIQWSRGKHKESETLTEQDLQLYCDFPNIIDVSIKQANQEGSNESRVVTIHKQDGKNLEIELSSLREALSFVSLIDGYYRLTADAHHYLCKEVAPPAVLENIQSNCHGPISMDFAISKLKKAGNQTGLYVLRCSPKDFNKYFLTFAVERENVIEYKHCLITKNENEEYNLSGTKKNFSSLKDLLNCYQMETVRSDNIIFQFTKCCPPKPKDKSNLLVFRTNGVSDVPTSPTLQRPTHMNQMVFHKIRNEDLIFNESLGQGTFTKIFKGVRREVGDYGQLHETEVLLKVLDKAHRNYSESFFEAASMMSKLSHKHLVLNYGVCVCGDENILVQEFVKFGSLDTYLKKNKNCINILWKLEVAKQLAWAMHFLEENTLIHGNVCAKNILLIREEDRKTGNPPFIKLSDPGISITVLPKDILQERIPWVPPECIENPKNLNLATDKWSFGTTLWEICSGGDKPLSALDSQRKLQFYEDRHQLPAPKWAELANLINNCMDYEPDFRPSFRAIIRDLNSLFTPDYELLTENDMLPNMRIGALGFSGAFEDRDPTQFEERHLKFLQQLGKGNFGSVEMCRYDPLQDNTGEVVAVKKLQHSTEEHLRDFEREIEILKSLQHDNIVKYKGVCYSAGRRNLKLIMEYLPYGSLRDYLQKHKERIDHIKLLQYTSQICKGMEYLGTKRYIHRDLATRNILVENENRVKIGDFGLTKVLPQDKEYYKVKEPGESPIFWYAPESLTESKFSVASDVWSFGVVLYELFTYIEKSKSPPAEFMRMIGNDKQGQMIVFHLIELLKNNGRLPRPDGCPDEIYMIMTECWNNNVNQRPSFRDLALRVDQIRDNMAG
Sequence of JAK1 (P23458 whole entry, species assumed): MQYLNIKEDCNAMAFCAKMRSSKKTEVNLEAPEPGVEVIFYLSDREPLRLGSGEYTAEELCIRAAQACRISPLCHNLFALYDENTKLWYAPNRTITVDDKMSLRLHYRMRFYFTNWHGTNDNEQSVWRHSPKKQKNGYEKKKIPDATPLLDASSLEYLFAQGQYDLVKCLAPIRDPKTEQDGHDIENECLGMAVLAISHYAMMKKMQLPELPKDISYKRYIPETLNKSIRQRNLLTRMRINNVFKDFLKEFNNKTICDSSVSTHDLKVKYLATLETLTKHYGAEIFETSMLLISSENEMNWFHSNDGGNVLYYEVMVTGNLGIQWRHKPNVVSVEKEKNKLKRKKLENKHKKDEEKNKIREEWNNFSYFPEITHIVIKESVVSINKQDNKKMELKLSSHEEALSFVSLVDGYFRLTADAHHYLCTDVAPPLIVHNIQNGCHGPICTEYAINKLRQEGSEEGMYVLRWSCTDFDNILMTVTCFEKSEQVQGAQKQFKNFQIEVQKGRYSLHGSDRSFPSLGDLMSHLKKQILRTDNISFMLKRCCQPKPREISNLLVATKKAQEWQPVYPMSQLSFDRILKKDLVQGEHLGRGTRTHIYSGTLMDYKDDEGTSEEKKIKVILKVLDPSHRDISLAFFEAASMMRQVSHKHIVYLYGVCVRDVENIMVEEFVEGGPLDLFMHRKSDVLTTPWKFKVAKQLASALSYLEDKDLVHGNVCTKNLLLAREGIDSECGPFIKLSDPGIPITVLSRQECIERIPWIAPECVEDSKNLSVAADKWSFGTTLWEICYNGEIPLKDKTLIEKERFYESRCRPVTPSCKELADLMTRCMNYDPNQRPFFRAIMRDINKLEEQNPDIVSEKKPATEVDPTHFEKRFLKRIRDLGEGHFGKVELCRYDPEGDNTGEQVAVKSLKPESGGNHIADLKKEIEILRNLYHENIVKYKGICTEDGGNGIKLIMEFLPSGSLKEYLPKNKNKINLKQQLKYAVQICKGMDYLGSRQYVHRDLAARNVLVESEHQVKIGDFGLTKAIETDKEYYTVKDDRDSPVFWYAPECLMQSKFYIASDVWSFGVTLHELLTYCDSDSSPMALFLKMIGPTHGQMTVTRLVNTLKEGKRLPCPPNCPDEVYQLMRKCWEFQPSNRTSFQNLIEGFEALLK

As for `CC(C)(O)Cn1cc(Nc2nc(-c3cnn(C4(CC#N)CN(S(C)(=O)=O)C4)c3)c3sccc3n2)cn1` [Compound T-78, 2-(3-(4-(2-((1-(2-Hydroxy-2-methylpropyl)-1H-pyrazol-4-yl)amino)thieno[3,2-d]pyrimidin-4-yl)-1H-pyrazol-1-yl)-1-(methylsulfonyl)azetidin-3-yl)acetonitrile], the IC50 against JAK1, against JAK2 and on JAK3 was below 0.05 µM throughout.

For `CC(C)(C)NS(=O)(=O)c1ccc(-c2nc(Nc3ccc(N4CCOCC4)cc3)nc3ccsc23)cc1` [Compound T-17, N-(Tert-butyl)-4-(2-((4-morpholinophenyl)amino)thieno[3,2-d]pyrimidin-4-yl)benzenesulfonamide], the IC50 at JAK1, at JAK2 and on JAK3 was above 1 µM in each case.

In the case of `CCS(=O)(=O)N1CC(CC#N)(n2cc(-c3nc(Nc4cnn(C5CN(CC6CC6)C5)c4)nc4ccsc34)cn2)C1` [Compound T-66, 2-(3-(4-(2-((1-(1-(Cyclopropylmethyl)azetidin-3-yl)-1H-pyrazol-4-yl)amino)thieno[3,2-d]pyrimidin-4-yl)-1H-pyrazol-1-yl)-1-(ethylsulfonyl)azetidin-3-yl)acetonitrile], the IC50 against JAK1, on JAK2 and at JAK3 was below 0.05 µM throughout.

Regarding `CCS(=O)(=O)N1CC(CC#N)(n2cc(-c3nc(Nc4cnn(CCC(=O)N(C)C)c4)nc4ccsc34)cn2)C1` [Compound T-36, 3-(4-((4-(1-(3-(Cyanomethyl)-1-(ethylsulfonyl)azetidin-3-yl)-1H-pyrazol-4-yl)thieno[3,2-d]pyrimidin-2-yl)amino)-1H-pyrazol-1-yl)-N,N-dimethylpropanamide], the IC50 against JAK1 was 0.05 to 0.5 µM; against JAK2, below 0.05 µM; at JAK3 it was below 0.05 µM.

Turning to `Cn1cc(Nc2nc(-c3cnn(C4(CC#N)CN(S(C)(=O)=O)C4)c3)c3sccc3n2)cn1` [Compound T-74, 2-(3-(4-(2-((1-Methyl-1H-pyrazol-4-yl)amino)thieno[3,2-d]pyrimidin-4-yl)-1H-pyrazol-1-yl)-1-(methylsulfonyl)azetidin-3-yl)acetonitrile], the IC50 at JAK1, on JAK2 and at JAK3 was below 0.05 µM in each case.

`CS(=O)(=O)CCCn1cc(Nc2nc(-c3cnn(C4(CC#N)CCC4)c3)c3sccc3n2)cn1` [Compound T-73, 2-(1-(4-(2-((1-(3-(Methylsulfonyl)propyl)-1H-pyrazol-4-yl)amino)thieno[3,2-d]pyrimidin-4-yl)-1H-pyrazol-1-yl)cyclobutyl)acetonitrile]: the IC50 against JAK1 was 0.05 to 0.5 µM; against JAK2 it was below 0.05 µM; at JAK3, 0.05 to 0.5 µM.

`CCS(=O)(=O)N1CC(CC#N)(n2cc(-c3nc(Nc4cnc(N5CCOCC5)nc4)nc4ccsc34)cn2)C1` [Compound T-63, 2-(1-(Ethylsulfonyl)-3-(4-(2-((2-morpholinopyrimidin-5-yl)amino)thieno[3,2-d]pyrimidin-4-yl)-1H-pyrazol-1-yl)azetidin-3-yl)acetonitrile]: the values for the IC50 against JAK1, at JAK2 and at JAK3 were 0.5 to 1 µM, below 0.05 µM and 0.5 to 1 µM, respectively.

Regarding `C[C@H](O)Cn1cc(Nc2nc(-c3cnn(C4(CC#N)CN(S(C)(=O)=O)C4)c3)c3sccc3n2)cn1` [Compound T-87, (S)-2-(3-(4-(2-((1-(2-Hydroxypropyl)-1H-pyrazol-4-yl)amino)thieno[3,2-d]pyrimidin-4-yl)-1H-pyrazol-1-yl)-1-(methylsulfonyl)azetidin-3-yl)acetonitrile], the IC50 on JAK1, against JAK2 and at JAK3 was below 0.05 µM in each case.

Consider `CCS(=O)(=O)N1CC(CC#N)(n2cc(-c3nc(Nc4ccn(C)n4)nc4ccsc34)cn2)C1` [Compound T-25, 2-(1-(Ethylsulfonyl)-3-(4-(2-((1-methyl-1H-pyrazol-3-yl)amino)thieno[3,2-d]pyrimidin-4-yl)-1H-pyrazol-1-yl)azetidin-3-yl)acetonitrile], for which the IC50 against JAK1 was below 0.05 µM; against JAK2, below 0.05 µM; on JAK3, 0.05 to 0.5 µM.

On to `CCS(=O)(=O)N1CC(CC#N)(n2cc(-c3nc(Nc4cnn(CC(=O)O)c4)nc4ccsc34)cn2)C1` [Compound T-33, 2-(4-((4-(1-(3-(Cyanomethyl)-1-(ethylsulfonyl)azetidin-3-yl)-1H-pyrazol-4-yl)thieno[3,2-d]pyrimidin-2-yl)amino)-1H-pyrazol-1-yl)acetic acid], for which the figures for the IC50 on JAK1, against JAK2 and on JAK3 were below 0.05 µM, below 0.05 µM and 0.05 to 0.5 µM, respectively.

Turning to `CCS(=O)(=O)N1CC(CC#N)(n2cc(-c3nc(Nc4ccc(S(C)(=O)=O)cc4)nc4ccsc34)cn2)C1` [Compound T-12, 2-(1-(Ethylsulfonyl)-3-(4-(2-((4-(methylsulfonyl)phenyl)amino)thieno[3,2-d]pyrimidin-4-yl)-1H-pyrazol-1-yl)azetidin-3-yl)acetonitrile], the 50% inhibitory concentration (IC50) is below 0.05 µM on JAK1, below 0.05 µM against JAK2 and 0.05 to 0.5 µM at JAK3.

On to `C[C@@H](O)Cn1cc(Nc2nc(-c3cnn(C4(CC#N)COC4)c3)c3sccc3n2)cn1` [Compound T-80, (R)-2-(3-(4-(2-((1-(2-Hydroxypropyl)-1H-pyrazol-4-yl)amino)thieno[3,2-d]pyrimidin-4-yl)-1H-pyrazol-1-yl)oxetan-3-yl)acetonitrile], for which the IC50 against JAK1 is 0.05 to 0.5 µM; against JAK2, below 0.05 µM; on JAK3, 0.05 to 0.5 µM.

Consider `C[C@@H](CO)n1cc(Nc2nc(-c3cnn(C4(CC#N)COC4)c3)c3sccc3n2)cn1` [Compound T-83, (S)-2-(3-(4-(2-((1-(1-Hydroxypropan-2-yl)-1H-pyrazol-4-yl)amino)thieno[3,2-d]pyrimidin-4-yl)-1H-pyrazol-1-yl)oxetan-3-yl)acetonitrile], for which the IC50 is below 0.05 µM on JAK1, below 0.05 µM against JAK2 and 0.05 to 0.5 µM at JAK3.

With `N#Cc1ccc(-c2nc(Nc3ccccc3)nc3ccsc23)cc1F` [Compound T-56, 2-Fluoro-4-(2-(phenylamino)thieno[3,2-d]pyrimidin-4-yl)benzonitrile], the IC50 against JAK1, at JAK2 and at JAK3 was above 1 µM in each case.

`CCS(=O)(=O)N1CC(CC#N)(n2cc(-c3nc(Nc4cnn(CCN5CCOCC5)c4)nc4ccsc34)cn2)C1` [Compound T-53, 2-(1-(Ethylsulfonyl)-3-(4-(2-((1-(2-morpholinoethyl)-1H-pyrazol-4-yl)amino)thieno[3,2-d]pyrimidin-4-yl)-1H-pyrazol-1-yl)azetidin-3-yl)acetonitrile]: the IC50 at JAK1 is 0.05 to 0.5 µM; on JAK2 it was below 0.05 µM; at JAK3 it was below 0.05 µM.

As to `CCS(=O)(=O)N1CC(CC#N)(n2cc(-c3nc(Nc4cn(C)cn4)nc4ccsc34)cn2)C1` [Compound T-48, 2-(1-(Ethylsulfonyl)-3-(4-(2-((1-methyl-1H-imidazol-4-yl)amino)thieno[3,2-d]pyrimidin-4-yl)-1H-pyrazol-1-yl)azetidin-3-yl)acetonitrile], the IC50 against JAK1 is above 1 µM; at JAK2, 0.05 to 0.5 µM; at JAK3 it was above 1 µM.

Consider `CCS(=O)(=O)N1CC(CC#N)(n2cc(-c3nc(Nc4ccc(N5CCOCC5)cc4)nc4ccsc34)cn2)C1` [Compound T-07, 2-(1-(Ethylsulfonyl)-3-(4-(2-((4-morpholinophenyl)amino)thieno[3,2-d]pyrimidin-4-yl)-1H-pyrazol-1-yl)azetidin-3-yl)acetonitrile], for which the results for the IC50 on JAK1, on JAK2 and on JAK3 were below 0.05 µM, below 0.05 µM and 0.05 to 0.5 µM, respectively.

For `Cn1cc(Nc2nc(-c3cnn(C4(CC#N)CCOCC4)c3)c3sccc3n2)cn1` [Compound T-44, 2-(4-(4-(2-((1-Methyl-1H-pyrazol-4-yl)amino)thieno[3,2-d]pyrimidin-4-yl)-1H-pyrazol-1-yl)tetrahydro-2H-pyran-4-yl)acetonitrile], the IC50 is 0.05 to 0.5 µM on JAK1, below 0.05 µM against JAK2 and 0.05 to 0.5 µM at JAK3.
